Results on 8 compounds are retold here after patent US20100130474A1 (WYETH, priority 2008, published 2010).

Molecules are shown by their SMILES. Counter-ions that a name gives are not always drawn.

The nature of data set [1]: hygroscopicity / Dynamic Vapor Sorption (DVS) of hydrochloride salt crystal forms. The data set is classed as physicochemical. The settings on record: for water absorbed eventually: RH of 90%; for Hygroscopicity: hydrochloride salt of Example 4, result in words; for water uptake: at RH 50%. The method, then: Differential scanning calorimetry data were collected for each solid form achieved using a DSC (TA instruments, model Q1000) under the following parameters: 50 mL/min purge gas (N2); scan range 40 to 200° C., scan rate 10° C./min. Thermogravimetric analysis data were collected using a TGA instruments (Mettler Toledo, model TGA/SDTA 851e) under the following parameters: 40 ml/min purge gas (N2); scan range 30 to 250° C., scan rate 10° C./min. X-ray data were acquired using an X-ray powder diffractometer (Bruker-axs, model D8 advance) having the following parameters: voltage 40 kV, current 40.0 mA, scan range (2) 5 to 30°, scan step size 0.01°, total scan time 33 minutes, VANTEC detector, and antiscattering slit 1 mm. FIGS. 1-7 show characterization data for hydrochloride salt forms.
Dynamic Vapor Sorption (DVS) was done at 26° C.

The nature of data set [2]: solubility in water of hydrochloride salt crystal forms. It counts as physicochemical. Particulars: result in words.
In another data set the target is T1, rat-alpha 7-nAChR (Rattus norvegicus, UniProt Q05941).
T1 construct: expressed in transfected cells
T1 sequence (Q05941 23-502): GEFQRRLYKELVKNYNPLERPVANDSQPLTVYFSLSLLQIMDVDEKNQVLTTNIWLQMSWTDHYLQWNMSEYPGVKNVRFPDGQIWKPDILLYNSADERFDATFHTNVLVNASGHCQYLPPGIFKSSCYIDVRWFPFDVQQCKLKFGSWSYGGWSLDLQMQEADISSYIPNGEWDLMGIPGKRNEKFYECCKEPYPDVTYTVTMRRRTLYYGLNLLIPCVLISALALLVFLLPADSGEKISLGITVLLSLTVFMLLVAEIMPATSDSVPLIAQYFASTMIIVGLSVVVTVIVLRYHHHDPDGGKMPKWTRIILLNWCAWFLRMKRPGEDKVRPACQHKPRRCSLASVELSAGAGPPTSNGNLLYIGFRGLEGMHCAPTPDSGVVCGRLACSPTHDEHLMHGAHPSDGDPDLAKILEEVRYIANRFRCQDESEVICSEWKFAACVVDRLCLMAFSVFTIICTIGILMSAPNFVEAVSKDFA
Description: functional FLIPR assay, GH4C1 cells stably expressing alpha7 nAChR (intracellular calcium). Particulars: alpha7 nAChR stably expressed in GH4C1 cells; agonist concentration range 0.001 to 30 microM. The data set is classed as cell-based.

Description for rat-alpha 7-nAChR: Rat GH4C1 cells were then transfected with the rat receptor, cloned and analyzed for functional alpha 7 nicotinic receptor expression employing a FLIPR assay to measure changes in intracellular calcium concentrations.
The FLIPR system allows the measurements of real time Ca^2+-concentration changes in living cells using a Ca^2+ sensitive fluorescence dye (such as Fluo4). This instrument enables the screening for agonists and antagonists for alpha 7 nAChR channels stably expressed in GH4C1 cells.
GH4C1 cells stably transfected with rat-alpha 7-nAChR (see above) were used. These cells are poorly adherent and therefore pretreatment of flasks and plates with poly-D-lysine was carried out. Cells are grown in 150 cm^2 T-flasks, filled with 30 ml of medium at 37° C. and 5% CO2.
EC50 and IC50 values were calculated using the IDBS XLfit4.1 software package employing a sigmoidal concentration-response (variable slope) equation:
The compounds were tested using the functional FLIPR primary screening assay employing the stable recombinant GH4C1 cell line expressing the alpha 7 nAChR. Hits identified were validated further by generation of concentration-response curves.

On to `COc1ccc(-c2cc(NC(=O)CCCCN3CCCN(C(C)=O)CC3)[nH]n2)cc1` (as salt: hydrochloride) [Example 4, 5-(4-Acetyl-[1,4]diazepan-1-yl)-pentanoic acid [5-(4-methoxy-phenyl)-2H-pyrazol-3-yl]-amide], for which the melting point was 132 to 133 °C.

For the compound `COc1ccc(-c2cc(NC(=O)CCCCN3CCCN(C(C)=O)CC3)[nH]n2)cc1` [Form II, 5-(4-acetyl-1,4-diazepan-1-yl)-N-(5-(4-methoxyphenyl)-1H-pyrazol-3-yl)pentanamide], in data set [1] (DVS at 26° C.), the “relative humidity at which the form picks up moisture” value was “about 20%” and the water absorbed eventually entry was “up to 7%”. Further, the “water held at low RH” value in data set [1] (RH 0%, DVS at 26° C.) was found to be 2%. Besides, in data set [1], the Hygroscopicity result is listed as “non-hygroscopic”. For the same compound, the solubility in water result in data set [2] is “considerably soluble”.

`COc1ccc(-c2cc(NC(=O)CCCCN3CCCN(C(C)=O)CC3)n[nH]2)cc1.Cl` [5-(4-acetyl-[1,4]diazepan-1-yl)-pentanoic acid [5-(4-methoxy-phenyl)-1H-pyrazol-3-yl]-amide hydrochloride]: the Hygroscopicity entry in data set [1] is “extreme hygroscopicity”.

As to `COc1ccc(-c2cc(NC(=O)CCCCN3CCCN(C(C)=O)CC3)[nH]n2)cc1` [Form I, 5-(4-acetyl-1,4-diazepan-1-yl)-N-(5-(4-methoxyphenyl)-1H-pyrazol-3-yl)pentanamide], in data set [1] (DVS at 26° C.), the “relative humidity at which the form picks up moisture” value is given as “about 50%” and the water absorbed eventually entry is recorded as “up to 2%”. Besides, the moisture gain entry in data set [1] (at 70-100% RH, lost without significant hysteresis on decreasing RH) is given as “at least 12%”. Moreover, the moisture gain entry in data set [1] (equilibrated at RH less than or equal to 70%) is “about 0.5%”. Moreover, the Hygroscopicity entry in data set [1] is “relatively non-hygroscopic”. Also, in data set [2], the solubility in water result was “considerably soluble”.

`COc1ccc(-c2cc(NC(=O)CCCCN3CCCN(C(C)=O)CC3)[nH]n2)cc1` (as salt: hydrochloric acid salt) [5-(4-Acetyl-[1,4]diazepan-1-yl)-pentanoic acid [5-(4-methoxy-phenyl)-2H-pyrazol-3-yl]-amide] showed a melting point of 185 °C.

Consider `C[N+]1(C)CCN(c2ccccc2)CC1` [DMPP], for which the half-maximal effective concentration (EC50) at rat-alpha 7-nAChR turned out to be 980 ± 470 nM.

As for `COc1ccc(-c2cc(NC(=O)CCCCN3CCCN(C(C)=O)CC3)[nH]n2)cc1` [Crystal Form V, 5-(4-Acetyl-[1,4]diazepan-1-yl)-pentanoic acid [5-(4-methoxy-phenyl)-2H-pyrazol-3-yl]-amide], in data set [1], the water uptake result is reported as “(7% at RH” and the Hygroscopicity entry is “Hygroscopic”.

With `COc1ccc(-c2cc(NC(=O)CCCCN3CCCN(C(C)=O)CC3)[nH]n2)cc1` [Crystal Form III, 5-(4-Acetyl-[1,4]diazepan-1-yl)-pentanoic acid [5-(4-methoxy-phenyl)-2H-pyrazol-3-yl]-amide], in data set [1], the water uptake result is listed as “(10% water” and the Hygroscopicity entry is given as “Hygroscopic”.
